Where “and” joins values, the source holds several entries; their conditions need not be identical. Identical values can stand only once. Toxic doses and inconclusive results are not listed. The calls were made as follows: active = survival T/C of 150% or more; inactive = T/C below 125% in these data.
Test system: P388 leukemia ip, CD2F1 mice, survival T/C
Test: NCI In Vivo Anticancer Drug Screen. Data for tumor model P388 Leukemia (intraperitoneal) in CD2F1 (CDF1) mice
Conditions: endpoint: median survival time, higher = longer survival
Procedure, shortened: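 Mice carrying the transplanted tumor received test compound or vehicle. Survival was recorded in each group, and the value is the treated-group measurement divided by that of the vehicle-treated control group.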

[1] = dose: 0.78 mg/kg/injection, schedule: Q01DX009 (ip), vehicle: Klucel (hydroxypropylcellulose) (HPC)
[2] = dose: 1.56 mg/kg/injection, schedule: Q01DX009 (ip), vehicle: Klucel (hydroxypropylcellulose) (HPC)
[3] = dose: 50.0 mg/kg/injection, schedule: Q01DX009 (ip), vehicle: saline with Tween-80
[4] = dose: 100.0 mg/kg/injection, schedule: Q01DX009 (ip), vehicle: saline with Tween-80
[5] = dose: 200.0 mg/kg/injection, schedule: Q01DX009 (ip), vehicle: saline with Tween-80
[6] = dose: 50.0 mg/kg/injection, schedule: Q01DX005 (ip), vehicle: Klucel (hydroxypropylcellulose) (HPC)
[7] = dose: 100.0 mg/kg/injection, schedule: Q01DX005 (ip), vehicle: Klucel (hydroxypropylcellulose) (HPC)
[8] = dose: 200.0 mg/kg/injection, schedule: Q01DX005 (ip), vehicle: Klucel (hydroxypropylcellulose) (HPC)
[9] = dose: 100.0 mg/kg/injection, schedule: Q01DX001 (ip), vehicle: saline with Tween-80
[10] = dose: 200.0 mg/kg/injection, schedule: Q01DX001 (ip), vehicle: saline with Tween-80
[11] = dose: 50.0 mg/kg/injection, schedule: Q01DX009 (ip), vehicle: Klucel (hydroxypropylcellulose) (HPC)
[12] = dose: 100.0 mg/kg/injection, schedule: Q01DX009 (ip), vehicle: Klucel (hydroxypropylcellulose) (HPC)
[13] = dose: 200.0 mg/kg/injection, schedule: Q01DX009 (ip), vehicle: Klucel (hydroxypropylcellulose) (HPC)
[14] = dose: 50.0 mg/kg/injection, schedule: Q01DX005 (ip), vehicle: saline with Tween-80
[15] = dose: 100.0 mg/kg/injection, schedule: Q01DX005 (ip), vehicle: saline with Tween-80
[16] = dose: 200.0 mg/kg/injection, schedule: Q01DX005 (ip), vehicle: saline with Tween-80
[17] = dose: 50.0 mg/kg/injection, schedule: Q01DX005 (ip), vehicle: saline + Tween-80 + alcohol
[18] = dose: 100.0 mg/kg/injection, schedule: Q01DX005 (ip), vehicle: saline + Tween-80 + alcohol
[19] = dose: 60.0 mg/kg/injection, schedule: Q01DX005 (ip), vehicle: saline with Tween-80
[20] = dose: 120.0 mg/kg/injection, schedule: Q01DX005 (ip), vehicle: saline with Tween-80
[21] = dose: 240.0 mg/kg/injection, schedule: Q01DX005 (ip), vehicle: saline with Tween-80
[22] = dose: 12.5 mg/kg/injection, schedule: Q01DX009 (ip), vehicle: saline
[23] = dose: 25.0 mg/kg/injection, schedule: Q01DX009 (ip), vehicle: saline

Measured: T/C

CC1(C)CC2(OC2c2ccc([N+](=O)[O-])cc2)C(=O)c2ccccc21 (stereo unspecified)
inactive: [1] 87 % of control | [2] 88 % of control | dose: 3.13 mg/kg/injection, schedule: Q01DX009 (ip), vehicle: Klucel (hydroxypropylcellulose) (HPC) 90 % of control | [3] 100 % of control | [4] 90 % of control | [5] 95 % of control | dose: 400.0 mg/kg/injection, schedule: Q01DX009 (ip), vehicle: Klucel (hydroxypropylcellulose) (HPC) 93 % of control

COc1cc(-n2c(C)nc3ncn(-c4ccccc4)c3c2=O)cc(OC)c1OC
inactive: [6] 98 % of control | [7] 102 % of control | [8] 105 % of control

COc1cc2c(cc1OC)C(=O)Nc1nc(N)nc(N)c1C2
inactive: [9] 108 % of control | [10] 119 % of control

COC(C)(C)c1ccccc1[S+]1OC(C)(C)c2ccccc21 (stereo unspecified)
inactive: dose: 100.0 mg/kg/injection, schedule: Q04DX002 (ip), vehicle: suspension in saline 96 % of control | dose: 200.0 mg/kg/injection, schedule: Q04DX002 (ip), vehicle: suspension in saline 100 % of control | dose: 400.0 mg/kg/injection, schedule: Q04DX002 (ip), vehicle: suspension in saline 109 % of control

Cn1c(=O)n2n(c1=O)C1C3C4C5C3C13COCC53C42 (stereo unspecified)
inactive: [11] 97 % of control | [12] 97 % of control | [13] 100 % of control

C=C(C)C(=O)OC1C(C(C)CCCO)=C(CO)CC2OC(=O)C(=C)C21 (stereo unspecified)
inactive: dose: 3.12 mg/kg/injection, schedule: Q01DX009 (ip), vehicle: saline + alcohol 108 % of control | dose: 6.25 mg/kg/injection, schedule: Q01DX009 (ip), vehicle: saline + alcohol 112 % of control | dose: 12.5 mg/kg/injection, schedule: Q01DX009 (ip), vehicle: saline + alcohol 118 % of control | dose: 25.0 mg/kg/injection, schedule: Q01DX009 (ip), vehicle: saline + alcohol 111 % of control

COc1ccc2nc3cc(Cl)ccc3c(Nc3ccc(S(=O)(=O)Nc4nccs4)cc3)c2c1
inactive: [14] 94 % of control | [15] 105 % of control | [16] 97 % of control

CO/C1=C\C(C)=C\C(C)C(O)C(C)C/C(C)=C/C=C/C(OC)C(C(C)C(O)C(C)C(=O)/C=C/C(C)C(C)O)OC1=O (stereo unspecified)
inactive: dose: 6.25 mg/kg/injection, schedule: Q01DX005 (ip), vehicle: other 108 % of control | dose: 12.5 mg/kg/injection, schedule: Q01DX005 (ip), vehicle: other 98 % of control | dose: 25.0 mg/kg/injection, schedule: Q01DX005 (ip), vehicle: other 103 % of control | dose: 25.0 mg/kg/injection, schedule: Q01DX005 (ip), vehicle: saline + Tween-80 + alcohol 103 % of control | dose: 50.0 mg/kg/injection, schedule: Q01DX005 (ip), vehicle: other 106 % of control | [17] 94 % of control | [18] 94 % of control

COc1cc(-c2nn(CN3CCOCC3)c(=S)n2C)cc(OC)c1OC
inactive: [6] 103 % of control | [7] 103 % of control | [8] 100 % of control

O=[N+]([O-])c1ccc(/C=C/C(CCN2CCOCC2)=N/O)cc1
inactive: [19] 104 % of control | [20] 99 % of control | [21] 103 % of control

C[OH2+].[Cl][Cu+].[Cl][Cu+].[NH-]CCC([OH2+])CC[NH-]
inactive: dose: 1.56 mg/kg/injection, schedule: Q01DX005 (ip), vehicle: Klucel (hydroxypropylcellulose) (HPC) 96 % of control | dose: 3.12 mg/kg/injection, schedule: Q01DX005 (ip), vehicle: Klucel (hydroxypropylcellulose) (HPC) 103 % of control | dose: 6.25 mg/kg/injection, schedule: Q01DX005 (ip), vehicle: Klucel (hydroxypropylcellulose) (HPC) 106 % of control and 91 % of control

NC(CC(=O)O)c1ccccc1 (stereo unspecified)
inactive: [3] 107 % of control | [4] 102 % of control | [5] 102 % of control | dose: 400.0 mg/kg/injection, schedule: Q01DX009 (ip), vehicle: saline with Tween-80 90 % of control

Cc1nn(-c2nc(-c3ccccc3)cs2)c(C)c1C
inactive: [11] 98 % of control | [12] 96 % of control | [13] 101 % of control

CCCCCCCCCCOC(=O)CC(C)=O.CCCCCCCCCCOC(=O)CC(C)=O.[Ni+2]
inactive: [22] 98 % of control | [23] 100 % of control | dose: 50.0 mg/kg/injection, schedule: Q01DX009 (ip), vehicle: saline 98 % of control and 91 % of control | dose: 100.0 mg/kg/injection, schedule: Q01DX009 (ip), vehicle: saline 86 % of control

C/C(CC(C)C(=O)O)=N/NC(N)=O (stereo unspecified)
inactive: [6] 97 % of control | [7] 97 % of control | [8] 97 % of control

Cc1cc(-c2ccc(N=Nc3ccc4c(S(=O)(=O)O)cc(S(=O)(=O)O)c(N)c4c3O)c(C)c2)ccc1N=Nc1ccc2c(S(=O)(=O)O)cc(S(=O)(=O)O)c(N)c2c1O
inactive: [22] 116 % of control | [23] 107 % of control

Cc1ncc(CO)c(C2NC(C(=O)O)CS2)c1O (stereo unspecified)
inactive: [19] 98 % of control | [20] 98 % of control | [21] 100 % of control

NCCCCC(C(=O)NC(Cc1ccc(O)cc1)C(=O)NN)N(C(=O)OCc1ccccc1)C(=O)OCc1ccccc1 (stereo unspecified)
inactive: [17] 107 % of control | [18] 104 % of control | dose: 200.0 mg/kg/injection, schedule: Q01DX005 (ip), vehicle: saline + Tween-80 + alcohol 94 % of control

CCN(CC)Cc1cc(N=Nc2ccc(-c3ccc(N)c(OC)c3)cc2OC)c2ccccc2c1O
inactive: [11] 92 % of control | [12] 99 % of control | [13] 93 % of control

Nc1nc2ccc(NCc3ccc(C(=O)NC(CCC(=O)O)C(=O)O)cc3)cc2c(=O)[nH]1 (stereo unspecified)
inactive: dose: 6.25 mg/kg/injection, schedule: Q01DX005 (ip), vehicle: saline with Tween-80 108 % of control | dose: 12.5 mg/kg/injection, schedule: Q01DX005 (ip), vehicle: saline with Tween-80 108 % of control | dose: 25.0 mg/kg/injection, schedule: Q01DX005 (ip), vehicle: saline with Tween-80 103 % of control and 108 % of control | [14] 113 % of control and 117 % of control

CN1C(C)(C)CC2=C(c3ccccc3)c3ccccc3C2C1(C)C (stereo unspecified)
inactive: [14] 106 % of control | [15] 100 % of control | [16] 102 % of control

Nc1cc(=O)[nH]c(=S)n1-c1ccc(Br)cn1
inactive: [9] 90 % of control | [10] 100 % of control | dose: 400.0 mg/kg/injection, schedule: Q01DX001 (ip), vehicle: saline with Tween-80 90 % of control

CCC1OC(/C(C)=C/C(C)/C=C/C2C(C)C2/C=C/C2OC(CC(=O)O)CC(O)C2O)CC=C1C (stereo unspecified)
inactive: dose: 16.82 mg/kg/injection, schedule: Q01DX009 (ip), vehicle: saline 100 % of control | dose: 33.65 mg/kg/injection, schedule: Q01DX009 (ip), vehicle: saline 92 % of control | dose: 67.3 mg/kg/injection, schedule: Q01DX009 (ip), vehicle: saline 94 % of control

CCOC1=CC(=O)/C(=C/O[Si](C)(C)C)CC1
inactive: [3] 103 % of control | [4] 99 % of control

N#CC1C(c2ccc(Cl)cc2)C(C(N)=O)C(=O)NC1(O)c1ccccc1 (stereo unspecified)
inactive: dose: 100.0 mg/kg/injection, schedule: Q04DX002 (ip), vehicle: Klucel (hydroxypropylcellulose) (HPC) 100 % of control | dose: 200.0 mg/kg/injection, schedule: Q04DX002 (ip), vehicle: Klucel (hydroxypropylcellulose) (HPC) 99 % of control | dose: 400.0 mg/kg/injection, schedule: Q04DX002 (ip), vehicle: Klucel (hydroxypropylcellulose) (HPC) 98 % of control

CCC[CH2][Sn]([Cl])([CH2]CCC)[S]C(=S)NCCNC(=S)[S][Sn]([Cl])([CH2]CCC)[CH2]CCC
inactive: [1] 93 % of control | [2] 98 % of control

CCCCCCCCCC1=C(C#N)C(=O)OCCN1C
inactive: [19] 92 % of control | [20] 93 % of control

Source: PubChem BioAssay AID330 (DTP/NCI, 2004)
